This note sets out measurements from ChEMBL document CHEMBL4680300, “Synthesis, biological evaluation, and NMR studies of 3-fluorinated derivatives of 3',4',5'-trihydroxyflavone and 3',4',5'-trimethoxyflavone” (Bioorg Med Chem Lett, 2021).

Data set [1] in a line: Antioxidant activity assessed as DPPH radical scavenging activity incubated for 20 mins in dark conditions. The data set is classed as functional.
Data set [2] concerns Neuron. In words: Neuroprotective activity in Sprague-Dawley rat cortical neurons assessed as reduction in glutamate-induced cell death preincubated for 1 hr followed by glutamate stimulation and measured after 24 hrs by MTS assay. The note with it: time 25.0 hrs. The data set is classed as functional, tissue-based.
Data set [3] has as its system Neuron. The experiment in a line: Neuroprotective activity in Sprague-Dawley rat cortical neurons assessed as reduction in glutamate-induced reactive oxygen species level incubated for 1 hr by DCFDA fluorescence-based microplate reader relative to control. The data set is classed as functional, tissue-based.
The nature of data set [4]: Stability of the compound in DMSO assessed as formation of ortho-quinone intermediate in presence of DPPH measured after 20 mins by NMR analysis. The data set is classed as physicochemical.
Data set [5] can be described thus: Stability of the compound in DMSO assessed as formation of ortho-quinone intermediate in presence of DPPH measured by mass spectrometry. Format: physicochemical.

Structures are written as SMILES. Converted amounts (≈) assume the structure as drawn. The source made the active and inactive calls. The rule behind the calls is not given here.

Consider `COc1cc(-c2cc(=O)c3ccccc3o2)cc(OC)c1OC`, for which, in data set [1], the concentration for a half-maximal effect (EC50) amounted to 71.66 µg/mL (≈ 229 µM).

In the case of `O=c1c(F)c(-c2cc(O)c(O)c(O)c2)oc2ccccc12`, in data set [1], the EC50 stood at 0.24 µg/mL (≈ 0.833 µM). The result in the data set on Neuron [2] and in the data set on Neuron [3] was Active. Moreover, the Stabilty entry in data set [4] and in data set [5] was “Unstable” each time.

Turning to `COc1cc(-c2oc3ccccc3c(=O)c2F)cc(OC)c1OC`, the concentration giving a half-maximal response (EC50) in data set [1] amounted to 37.14 µg/mL (≈ 112 µM).

For `O=c1cc(-c2cc(O)c(O)c(O)c2)oc2ccccc12`, in data set [1], the EC50 stood at 0.33 µg/mL (≈ 1.22 µM). For the same molecule, the result with Neuron [2] was Active.

`C[C@]12N[C@H](Cc3ccccc31)c1ccccc12`: the result in the data set with Neuron [2] was Active.

`O=C1O[C@H]([C@@H](O)CO)C(O)=C1O` [ASCORBIC ACID]: the EC50 in data set [1] amounted to 0.16 µg/mL (≈ 0.908 µM).
